How the values were obtained:
[1] = test system: idiopathic pulmonary fibrosis (IPF); conditions: cited from earlier work; for Decline in lung function in IPF: FDA-approved drugs for IPF; for Tolerability in IPF patients: gastrointestinal and other drug-related tolerability issues
[2] = test system: human melanoma cell lines; conditions: cited from earlier work
[3] = test system: CCL-206 lung fibroblasts co-cultured with primary murine Epcam-positive epithelial progenitor cells; experiment: Lung organoid formation model; assay type: cell-based; conditions: 14 days treatment; nintedanib 100 nM; SEQ ID NO: 74 at 100 nM
Procedure: The effect of CTGF-targeting lipocalin muteins was analyzed using an organoid model for lung regeneration. In this model, CCL-206 lung fibroblasts are co-cultured with freshly isolated primary murine Epcam-positive epithelial progenitor cells, and the number of formed organoids is analyzed after 14 days. TGF-b1 pre-treatment of CCL-206 fibroblasts leads to an impaired organoid formation and resembles an impairment of lung regeneration as for example observed in lung disease, such as IPF. The impaired formation of organoids can be rescued by treatment with different drugs, such as nintedanib, which is used as a positive control in this model. […] Analysis of organoid numbers confirmed the impairment of organoid formation by TGF-b1 stimulation.

FG-3019/pamrevlumab: anti-CTGF monoclonal antibody in clinical trials
Disease progression in patients suffering from IPF ([1]; phase 2 clinical trial): attenuated disease progression | Migration of human melanoma cell lines [2]: inhibition of the migration

COC(=O)c1ccc2c(c1)NC(=O)/C2=C(\Nc1ccc(N(C)C(=O)CN2CCN(C)CC2)cc1)c1ccccc1 [nintedanib]
Effect on TGF-b1 impaired organoid formation [3]: partially rescued | Decline in lung function in IPF [1]: slowing down the decline in lung function | Tolerability in IPF patients [1]: not well-tolerated

Cc1ccc(=O)n(-c2ccccc2)c1 [pirfenidone]
Decline in lung function in IPF [1]: slowing down the decline in lung function | Tolerability in IPF patients [1]: not well-tolerated
